Patent US20160115540A1, “PRODRUGS AND DRUGS” (Biogen MA Inc., priority 2013, published 2016)
Counter-ions that a name gives are not always drawn.

Test system: kidney
Assay: Transcriptional profiling on Affymetrix GeneChips, single dose, naïve mice: kidney
Format: in vivo, C57BL/6 mice
Conditions: 100MMF-vs-Veh
Protocol: Treated mice were sacrificed at 2, 7, or 12 hours. Tissues (liver, spleen, kidney, jejunum, cortex, hippocampus, striatum and whole blood) were collected and analyzed by transcriptional profiling on mouse Affymetrix GeneChips.
Tissues (liver, spleen, kidney, jejunum, cortex, hippocampus, striatum and whole blood) were collected and analyzed by transcriptional profiling on mouse Affymetrix GeneChips.
Animals were exposed to CO2 and whole blood collected via cardiac puncture. Two 100 μl aliquots of whole blood were collected in 1.5 mL microcentrifuge tubes and snap frozen in liquid nitrogen. Peripheral (liver, spleen, kidney and jejunum) and CNS brain (cerebellum, hippocampus, striatum and cortex) tissues were harvested and snap frozen in liquid nitrogen, with special care taken to collect tissues of similar size and from the same location. All samples were stored at −80° C. until RNA extraction was conducted.
For RNA preparation, frozen tissues were placed in 2 mL RNAse-free 96-well blocks with 1.5 mL QIAzol Lysis Reagent (QIAgen) and a 3.2 mm stainless steel bead (BioSpec Products, Bartlesville, Okla.). Tissues were disrupted for four cycles of 45 seconds in a Mini-Beadbeater (Biospec Products). RNA was extracted in chloroform and the aqueous phase was mixed with an equal volume of 70% ethanol. Extracted RNA was applied to RNeasy 96 plates and purified by the spin method according to the manufacturer's protocol (RNeasy 96 Universal Tissue Protocol, QIAgen, Hilden Germany).
Automated sample amplifications and biotin labelings were carried out using the NuGEN Ovation RNA Amplification system V2 (Cat #3100), Ovation WB reagent (Cat #1300) and Encore Biotin module (Cat #4200) (NuGEN Technologies, Inc, San Carlos, Calif.) according to manufacturer's recommendations using an Arrayplex automated liquid handler (Beckman Coulter, Indianapolis, Ind.). Two micrograms of biotin labeled sscDNA probe were hybridized to Affymetrix GeneChip Affymetrix HT_MG-430_PM plate arrays with modified conditions as described in Allaire et al. Washing and staining of the hybridized arrays were completed as described in the GeneChip Expression analysis technical manual for HT plate arrays using the Genechip® Array Station (Affymetrix, Santa Clara, Calif.) with modifications as described in Allaire et al. The processed GeneChip® plate arrays were scanned using GeneTitan scanner (Affymetrix, Santa Clara, Calif.).
Affymetrix scans were subject to quality control (QC) measures. These tests included a visual inspection of the distribution of raw signal intensities and an assessment of RNA degradation, relative log expression (RLE), and normalized unsealed standard error (NUSE). All sample scans that passed these QC metrics were included in the analysis.
All CEL files were subjected to GC-content-based Robust Multi-array Average (GCRMA) normalization (version 2.20.0) (Irizarry R A, et al. Nucleic Acids Res 2003; 31:e15; Li C, et al. Genome Biol 2001; 2:[…]0032). Expression levels were log (base 2) transformed.
All calculations and analyses were carried out using R (version 2.11.1) and Bioconductor computational tools (Gentleman R. Springer Science+Business Media 2005).

For COC(=O)/C=C/C(=O)O [MMF, monomethyl fumarate], the “FC 1456319_PM_at” value (2 h) was −2.06, the “FC 1456955_PM_at” value (2 h) was 1.60 and the “FC 1457189_PM_at” value (2 h) was −1.70. For the same compound, the “FC 1457586_PM_at” value (2 h) was 1.61, the “FC 1458096_PM_at” value (2 h) was −1.87 and the “FC 1458798_PM_at” value (2 h) was −1.56. The “FC 1459091_PM_at” value (2 h) was 2.78, the “FC 1459358_PM_at” value (2 h) was 1.56 and the “FC 1459516_PM_at” value (2 h) was 1.71. The “FC 1459774_PM_at” value (2 h) was 1.63, the “FC A330023F24Rik 1460033_PM_at” value (2 h) was 1.50 and the “FC AA986715 1459467_PM_at” value (2 h) was 1.68. For the same compound, the “FC Akr1c19 (1455454_PM_at)” value (2 h) was 1.56, the “FC Ankrd11 1458452_PM_at” value (2 h) was 1.56 and the “FC Arl5b 1455166_PM_at” value (2 h) was 1.64. For the same compound, the “FC BC038331 1458295_PM_at” value (2 h) was −1.57, the “FC Bcl7a 1458503_PM_at” value (2 h) was −1.54 and the “FC Cggbp1 1455658_PM_at” value (2 h) was 1.51. For the same compound, the “FC Gclc (1455959_PM_s_at)” value (2 h) was 1.53, the “FC LOC676974 1456909_PM_at” value (2 h) was 1.57 and the “FC LOC100504796 1457129_PM_at” value (2 h) was −1.55. For the same compound, the “FC Lonrf1 1455665_PM_at” value (2 h) was 1.98, the “FC Nufip2 1455387_PM_at” value (2 h) was 1.61 and the “FC Per3 1458176_PM_at” value (2 h) was −1.57. The “FC Phf13 1455175_PM_at” value (2 h) was 1.51, the “FC Pkp2 1460511_PM_at” value (2 h) was 1.67 and the “FC Ptprg 1456070_PM_at” value (2 h) was −2.31. For the same compound, the “FC Snx29 1456922_PM_at” value (2 h) was −1.74, the “FC Tnfsf10 1459913_PM_at” value (2 h) was −1.60 and the “FC Trib3 1456225_PM_x_at” value (2 h) was 1.56. For the same compound, the “FC Zfp295 1457552_PM_at” value (2 h) was 1.74, the “FC 1110032F04Rik 1456509_PM_at” value (7 h) was 4.65 and the “FC 1200003I10Rik /// 1200015M12Rik /// A130040M12Rik /// E430024C06Rik 1427932_PM_s_at” value (7 h) was 1.63. The “FC 1300002K09Rik 1453234_PM_at” value (7 h) was 1.98, the “FC 1444265_PM_at” value (7 h) was 1.53 and the “FC 1445668_PM_at” value (7 h) was 1.55. The “FC 1447396_PM_at” value (7 h) was −1.73, the “FC 1457594_PM_at” value (7 h) was −1.52 and the “FC 1459091_PM_at” value (7 h) was 3.52. For the same compound, the “FC 2610034E01Rik 1460483_PM_at” value (7 h) was 1.56, the “FC Abcc4 1443870_PM_at” value (7 h) was 2.09 and the “FC Abhd15 1453474_PM_at” value (7 h) was 1.64. The “FC Acsl4 1451828_PM_a_at” value (7 h) was 1.78, the “FC Agps 1434919_PM_at” value (7 h) was −1.68 and the “FC Agxt2l1 1452975_PM_at” value (7 h) was −1.74. The “FC Akr1b8 (1448894_PM_at)” value (7 h) was 1.86, the “FC Akr1c19 (1455454_PM_at)” value (7 h) was 1.97 and the “FC Alas1 1424126_PM_at” value (7 h) was 1.51. The “FC Alcam 1426300_PM_at” value (7 h) was 2.66, the “FC Alcam 1426301_PM_at” value (7 h) was 2.09 and the “FC Alcam 1437467_PM_at” value (7 h) was 2.00. For the same compound, the “FC Aldh1a7 (1418601_PM_at)” value (7 h) was 2.16, the “FC Aox1 (1419435_PM_at)” value (7 h) was 2.50 and the “FC Asns 1433966_PM_x_at” value (7 h) was 2.13. For the same compound, the “FC Asns 1451095_PM_at” value (7 h) was 2.23, the “FC Atp13a3 1442145_PM_at” value (7 h) was 1.52 and the “FC BC037032 1444682_PM_at” value (7 h) was 1.69. The “FC Bcat1 1430111_PM_a_at” value (7 h) was −1.59, the “FC Bcat1 1450871_PM_a_at” value (7 h) was −1.83 and the “FC Bcat1 1455699_PM_at” value (7 h) was −2.29. The “FC Blvrb (1451386_PM_at)” value (7 h) was 1.83, the “FC Btg1 1442018_PM_at” value (7 h) was 1.60 and the “FC Cbr1 (1460196_PM_at)” value (7 h) was 1.58. For the same compound, the “FC Cbr3 (1427912_PM_at)” value (7 h) was 9.54, the “FC Cenpe 1435005_PM_at” value (7 h) was −1.60 and the “FC Cml3 1421609_PM_a_at” value (7 h) was −1.64. For the same compound, the “FC Copg2as2 1427123_PM_s_at” value (7 h) was 1.56, the “FC Ctps 1416563_PM_at” value (7 h) was 1.57 and the “FC Cul9 1439866_PM_at” value (7 h) was −1.52. For the same compound, the “FC Cyp51 1422533_PM_at” value (7 h) was −1.54, the “FC Cyp51 1422534_PM_at” value (7 h) was −1.59 and the “FC D16Ertd778e 1445089_PM_at” value (7 h) was −1.87. For the same compound, the “FC D330040H18Rik 1444432_PM_at” value (7 h) was 1.77, the “FC Dbp (1418174_PM_at)” value (7 h) was −1.73 and the “FC Dbp (1438211_PM_s_at)” value (7 h) was −1.63. The “FC Ddit4l 1439332_PM_at” value (7 h) was 1.83, the “FC Ddit4l 1444139_PM_at” value (7 h) was 1.85 and the “FC Ddit4l 1451751_PM_at” value (7 h) was 2.62. For the same compound, the “FC Dnase2a (1430135_PM_at)” value (7 h) was 2.20, the “FC Dusp5 1437199_PM_at” value (7 h) was 1.74 and the “FC Eif4ebp1 1434976_PM_x_at” value (7 h) was 1.56. The “FC Endou 1449937_PM_at” value (7 h) was 1.52, the “FC Esr1 1460591_PM_at” value (7 h) was −1.54 and the “FC Fam107a 1435918_PM_at” value (7 h) was −1.77. For the same compound, the “FC Fbxl2 1428427_PM_at” value (7 h) was −1.68, the “FC Fgf1 1441042_PM_at” value (7 h) was −1.71 and the “FC Fgf1 1450869_PM_at” value (7 h) was −1.76. For the same compound, the “FC Fgfbp1 1419086_PM_at” value (7 h) was 1.73, the “FC Frem2 1457038_PM_at” value (7 h) was −1.66 and the “FC G0s2 1448700_PM_at” value (7 h) was 1.50. For the same compound, the “FC G6pd2 /// G6pdx 1422327_PM_s_at” value (7 h) was 1.86, the “FC G6pdx (1448354_PM_at)” value (7 h) was 1.75 and the “FC Gclc (1424296_PM_at)” value (7 h) was 1.87. The “FC Gclc (1455959_PM_s_at)” value (7 h) was 1.81, the “FC Gclm 1418627_PM_at” value (7 h) was 1.64 and the “FC Gdf15 1418949_PM_at” value (7 h) was 1.98. For the same compound, the “FC Gimap3 1449220_PM_at” value (7 h) was −1.51, the “FC Gjb1 1448766_PM_at” value (7 h) was 1.50 and the “FC Gk5 1436210_PM_at” value (7 h) was 1.55. For the same compound, the “FC Gm129 1435188_PM_at” value (7 h) was −2.12, the “FC Gm3776 /// Gsta1 /// Gsta2 1421041_PM_s_at” value (7 h) was 1.63 and the “FC Gpr135 1441944_PM_s_at” value (7 h) was 1.66. For the same compound, the “FC Gpr135 1459274_PM_at” value (7 h) was 1.53.
